Results published in patent US8168675B2, “Compositions and methods for treating neurodegenerative diseases” (Marin Bio Co., Ltd., priority 2008, dated 2012).

What was measured:
Type in all cases: in vivo
C57BL/6 (B6) mice [1] = test: Spiral ganglion cell counting (SGC density); settings: dietary supplementation from 4 to 15 months of age, *P<0.05, n=5
Experimental: (§1) Details on the methods used to house and feed male inbred C57BL/6 (B6) mice have been described (Pugh et al., Cancer Res. 59:1642 [1999]). Briefly, Mice were divided into five groups: control, α-lipoic acid (ALA), CLA, coenzyme Q10 (CQ), and phenylalanine (PA). The compound treatment groups were fed the same caloric intake as controls, but were supplemented with ALA (150 mg/kg), CLA (5000 mg/kg), CQ (50 mg/kg), and PA (250 mg/kg) from 4 months of age until 15 months of age (FIG. 1).
SGCs were identified by the presence of a nucleus. The SGC density was calculated as the number of SGCs per 1 mm^2. Five sections of the unilateral apical turn were evaluated in one cochlea per mouse. Data were analyzed using the two-tailed standard t-test. All data were reported as mean±S.E.M.

C57BL/6 (B6) mice [2] = test: ABR hearing threshold measurement in aged mice (presbycusis model); settings: dietary supplementation from 4 to 15 months of age, *P<0.05, n=5 vs Control
Experimental: as §1
Detailed protocols for ABR measurement have been described (Yamasoba et al., Neurosci Lett. 395:18 [2005]). […] Mice were anesthetized with a mixture of xylazine hydrochloride (10 mg/kg, i.m.) and ketamine hydrochloride (40 mg/kg, i.m.). Five to seven mice per group were used for this study, and the same mice were used for the following histopathological analyses. Data were examined using the two-tailed standard t-test and were tested for statistical significance using a One Way ANOVA test (GraphPad Prisim 5.0, San Diego, Calif.). All data were reported as mean±S.E.M.

C57BL/6 (B6) mice [3] = test: Cochlear histopathology (hair cells and SGCs); settings: dietary supplementation from 4 to 15 months of age, HE-stained cochlear sections, Control showed severe loss
Experimental: as §1
Detailed protocols for tissue processing have been described (Someya et al., [2007], supra). Briefly, 4% paraformaldehyde-fixed and paraffin-embedded specimens were sliced into 4 μm sections, mounted on silane-coated slides, stained with Haematoxylin and Eosin (HE), and observed under a light microscope (Leica Microsystems, Bannockburn, Ill.). The Rosenthal's canal was divided into three regions: apical, middle and basal (Keithley et al., [2004], supra) and the three regions were used for evaluation of cochlear histopathology. Five mice were used for each group that were the same mice as those used in the ABR tests. Five modiolar sections obtained in every fifth section from one unilateral cochlea were evaluated per mouse. The same animals were used for spiral ganglion cell counting.

| Compound | mean spiral ganglion cell density vs Control mice (C57BL/6 (B6) mice [1]) | hearing by ABR thresholds at 8 and 32 kHz (C57BL/6 (B6) mice [2]; 8 and 32 kHz) | loss of hair cells and SGCs in the cochleae (C57BL/6 (B6) mice [3]) | hearing by ABR thresholds at 32 kHz (C57BL/6 (B6) mice [2]) |
| --- | --- | --- | --- | --- |
| COC1=C(OC)C(=O)C(C/C=C(\C)CC/C=C(\C)CC/C=C(\C)CC/C=C(\C)CC/C=C(\C)CC/C=C(\C)CC/C=C(\C)CC/C=C(\C)CC/C=C(\C)CCC=C(C)C)=C(C)C1=O [CQ, coenzyme Q10] | significantly higher | normal hearing | no or only a few loss | – |
| conjugated linoleic acid [CLA] | – | – | – | normal hearing |
| O=C(O)CCCCC1CCSS1 (stereo not drawn) [ALA, α-lipoic acid] | significantly higher | – | no or only a few loss | normal hearing |
| N[C@@H](Cc1ccccc1)C(=O)O [PA, phenylalanine] | significantly higher | – | no or only a few loss | normal hearing |
